Data on 1 compound can be found in BindingDB's records for doi:10.1016/j.ejmech.2020.112861 (Zhengzhou University, 2021).

The Kd is the concentration at which binding is half-saturated. Lower therefore signals higher affinity.

The structures appear in SMILES notation.

The assay has as its target Bromodomain-containing protein 4 (Homo sapiens, UniProt O60885). Kind of assay: Binding affinity to human BRD4 bromodomain1 by isothermal titration calorimetry. In general terms: Isothermal titration calorimetry measures the heat released or taken up as one component is titrated into another.

On to `Cc1noc(C)c1-c1ccc2c(c1)nc(CCc1ccccc1)n2CCN1CCOCC1`, for which the Kd was found to be 950 nM. This lies in the sub-micromolar range.
